Results taken from ChEMBL document CHEMBL1201862, “PubChem BioAssay data set” (2004).
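Growth conditions: 96-well plates. Treatment: test compound, 48 hours, 5 concentrations. Analysis: linear interpolation between bracketing concentrations; unreached endpoints set to highest concentration. The concentration for 50% growth inhibition is given as GI50.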 Active and inactive are the calls of the source. No stated cut-off is given here; in the data, active = GI50 up to about 1.1 µM and inactive = higher.

Assays:
Assay in all cases: DTP human tumour cell line panel, 48 h
SNB-75 = system: SNB-75
NCI-H23 = system: NCI-H23
HCT-15 = system: HCT-15
SK-MEL-28 = system: SK-MEL-28
HOP-62 = system: HOP-62
OVCAR-5 = system: OVCAR-5
SK-MEL-5 = system: SK-MEL-5
DU-145 = system: DU-145
BT-549 = system: BT-549
SW-620 = system: SW-620
PC-3 = system: PC-3
SR = system: SR
NCI-H226 = system: NCI-H226
SF-539 = system: SF-539
OVCAR-4 = system: OVCAR-4
MCF7 = system: MCF7
COLO 205 = system: COLO 205
ACHN = system: ACHN
RXF 393 = system: RXF 393
SK-MEL-2 = system: SK-MEL-2
NCI-H460 = system: NCI-H460
RPMI-8226 = system: RPMI-8226
786-0 = system: 786-0
IGROV-1 = system: IGROV-1
HCT-116 = system: HCT-116
U-251 = system: U-251
NCI/ADR-RES = system: NCI/ADR-RES
UACC-62 = system: UACC-62
NCI-H522 = system: NCI-H522
UACC-257 = system: UACC-257
Hs-578T = system: Hs-578T
SK-OV-3 = system: SK-OV-3
KM12 = system: KM12
CAKI-1 = system: CAKI-1
TK-10 = system: TK-10
SNB-19 = system: SNB-19
HOP-92 = system: HOP-92
Malme-3M = system: Malme-3M
OVCAR-8 = system: OVCAR-8
UO-31 = system: UO-31
T47D = system: T47D
MOLT-4 = system: MOLT-4
MDA-MB-231 = system: MDA-MB-231
SF-268 = system: SF-268
MDA-MB-435 = system: MDA-MB-435
HT-29 = system: HT-29
SF-295 = system: SF-295
A549 = system: A549
M14 = system: M14
HL-60 = system: HL-60
K562 = system: K562
OVCAR-3 = system: OVCAR-3
EKVX = system: EKVX
HCC 2998 = system: HCC 2998
MDA-N = system: MDA-N
CCRF-CEM = system: CCRF-CEM
A498 = system: A498
SN12C = system: SN12C
LOX IMVI = system: LOX IMVI

Measured: GI50

O=[N+]([O-])c1ccc(/C=C(/c2ccc([N+](=O)[O-])o2)S(=O)(=O)c2ccccc2)cc1
26.9 µM: HCT-15
inactive: SNB-75 > 100 µM | NCI-H23 59 µM | SK-MEL-28 > 100 µM | HOP-62 50.6 µM | OVCAR-5 > 100 µM | SK-MEL-5 13.9 µM | DU-145 35.5 µM | BT-549 36.1 µM | SW-620 52 µM | PC-3 > 100 µM | SR 16.4 µM | NCI-H226 13.4 µM | SF-539 33.7 µM | OVCAR-4 57 µM | MCF7 40.8 µM | COLO 205 47.6 µM | ACHN > 100 µM | RXF 393 > 100 µM | SK-MEL-2 > 100 µM | NCI-H460 > 100 µM | RPMI-8226 13.7 µM | 786-0 > 100 µM | IGROV-1 75.5 µM | HCT-116 30.9 µM | U-251 73.5 µM | NCI/ADR-RES 47.5 µM | UACC-62 22.2 µM | NCI-H522 39.4 µM | UACC-257 29.4 µM | Hs-578T 26.1 µM | SK-OV-3 > 100 µM | KM12 41.1 µM | CAKI-1 > 100 µM | TK-10 > 100 µM | SNB-19 73.5 µM | HOP-92 > 100 µM | Malme-3M 25.2 µM | OVCAR-8 29.4 µM | UO-31 > 100 µM | T47D > 100 µM | MOLT-4 16.8 µM | MDA-MB-231 14.3 µM | SF-268 95.9 µM | MDA-MB-435 60.8 µM | HT-29 41.1 µM | SF-295 > 100 µM | A549 > 100 µM | M14 56.2 µM | HL-60 17.5 µM | K562 36.2 µM | OVCAR-3 97.9 µM

Cc1n[nH]c(=O)n1/N=C/c1ccc(F)cc1
> 100 µM: HCT-15
inactive: SNB-75 65.2 µM | NCI-H23 > 100 µM | SK-MEL-28 > 100 µM | HOP-62 > 100 µM | OVCAR-5 > 100 µM | DU-145 > 100 µM | BT-549 > 100 µM | SW-620 > 100 µM | SR > 100 µM | EKVX 92.9 µM | SF-539 > 100 µM | OVCAR-4 > 100 µM | COLO 205 > 100 µM | ACHN > 100 µM | HCC 2998 > 100 µM | RXF 393 40.6 µM | NCI-H460 > 100 µM | RPMI-8226 > 100 µM | 786-0 > 100 µM | HCT-116 > 100 µM | NCI/ADR-RES > 100 µM | UACC-62 > 100 µM | NCI-H522 > 100 µM | UACC-257 > 100 µM | SK-OV-3 > 100 µM | KM12 > 100 µM | MDA-N > 100 µM | CCRF-CEM > 100 µM | CAKI-1 > 100 µM | SNB-19 > 100 µM | HOP-92 > 100 µM | OVCAR-8 > 100 µM | UO-31 > 100 µM | T47D > 100 µM | MOLT-4 > 100 µM | SF-268 > 100 µM | MDA-MB-435 > 100 µM | SF-295 > 100 µM | A549 > 100 µM | M14 > 100 µM | A498 90.8 µM | K562 > 100 µM | SN12C > 100 µM | OVCAR-3 > 100 µM

O=C(/C=C1\Nc2ccccc2N\C1=C\C(=O)c1ccc(Cl)cc1)c1ccccc1
52.7 µM: HCT-15
inactive: SNB-75 21.3 µM | NCI-H23 75 µM | SK-MEL-28 42.4 µM | HOP-62 26.1 µM | OVCAR-5 64 µM | SK-MEL-5 > 100 µM | DU-145 > 100 µM | BT-549 34.5 µM | SW-620 > 100 µM | PC-3 > 100 µM | SR 20.6 µM | EKVX > 100 µM | NCI-H226 > 100 µM | SF-539 35.1 µM | OVCAR-4 31.3 µM | MCF7 38.7 µM | COLO 205 > 100 µM | ACHN 31.6 µM | HCC 2998 74.8 µM | RXF 393 70.1 µM | SK-MEL-2 > 100 µM | NCI-H460 19.7 µM | RPMI-8226 39.4 µM | 786-0 26 µM | IGROV-1 > 100 µM | HCT-116 38.3 µM | U-251 23.4 µM | NCI/ADR-RES > 100 µM | UACC-62 > 100 µM | NCI-H522 > 100 µM | UACC-257 53.8 µM | SK-OV-3 70 µM | KM12 64.4 µM | CCRF-CEM 10.4 µM | CAKI-1 27.8 µM | TK-10 > 100 µM | SNB-19 94.4 µM | Malme-3M > 100 µM | OVCAR-8 23.9 µM | UO-31 21.4 µM | T47D 16 µM | MOLT-4 7.87 µM | MDA-MB-231 > 100 µM | SF-268 > 100 µM | MDA-MB-435 > 100 µM | SF-295 40.3 µM | A549 53 µM | LOX IMVI 33.3 µM | M14 18.3 µM | A498 73.6 µM | K562 37.5 µM | SN12C 47.2 µM
